Experimental data: paper PMC10817945, “Design of a novel analogue peptide with potent antibiofilm activities against Staphylococcus aureus based upon a sapecin B-derived peptide” (Scientific Reports, 2024)
Like-named read-outs stand apart in the source and are kept apart here. Non-standard residues stand in square brackets, D forms with d. Residues, ends and D or L forms follow the SMILES beside them.

Key:
S. aureus strains = format: cell-based, Staphylococcus aureus; conditions: for inhibition of biofilm formation: strains, 24 h
Experimental: To investigate the inhibitory effect of KLK and mKLK peptides on bacterial surface attachment and biofilm formation, the bacterial suspension in TSB with a concentration of 10^7 CFU/ml was prepared from overnight culture. An aliquot of 100 μl of the bacterial suspension was added to wells of 96-well plates containing 100 μl of the peptides solution with concentrations of 1×, 1/2× and 1/4× MIC, resulting in the final peptides concentrations of 1/2×, 1/4× and 1/8× MIC. To investigate the inhibitory effect of the peptides on surface attachment the incubation was performed at 37 °C for 2 h and to evaluate their inhibitory activity on biofilm formation the incubation was performed at 37 °C for 24 h. The wells containing only TSB medium were used as negative controls. After incubation, the contents of the wells were removed and washed three times with PBS and the wells were stained with 200 μl of 0.1% crystal violet for 20 min. The plates were washed again and excess dye was removed. A volume of 200 μl of 95% ethanol was added to each well for 20 min and absorbance was measured at 570 nm by a microplate reader.

24-h S. aureus biofilms = experiment: Biofilm dispersal activity (crystal violet); format: cell-based, Staphylococcus aureus
Experimental: To investigate the dispersal activity of KLK and mKLK peptide, the 24-h S. aureus biofilms were prepared in TSB medium in the 96-well plates. Then, the final concentrations of 1×, 2×, and 4 × MIC were prepared for each peptide in the wells. After incubation at 37 °C for 12 h, plates were washed with PBS three times to discard unattached bacteria. Subsequently, plates were stained with 250 μl of 0.5% crystal violet for 20 min at room temperature. Then, the wells were washed and 250 μl 33% acetic acid was added to them. Finally, the absorbance was measured at 570 nm using a microplate reader.

[1] = test system: one MRSA and reference strain (ATCC25923); experiment: Time-kill kinetics assay
Experimental: The peptide-free control was included for each strain. Following incubation at 37 °C for 0, 0.25, 0.5, 1, 2, 4, 5, and 24 h, each sample was serially diluted, plated onto Mueller–Hinton (MH) agar (Merck, Germany) plates and incubated at 37 °C. The viable plate count method was performed after incubation for 24 h and the counts were expressed as Log CFU/ml[44].

With `CC(C)C[C@@H](NC(=O)[C@H](N)Cc1c[nH]c2ccccc12)C(=O)N[C@H](Cc1c[nH]c2ccccc12)C(=O)N[C@H](C)C(=O)N[C@H](CC(C)C)C(=O)N[C@H](CC(C)C)C(=O)N[C@H](CCCCN)C(=O)N[C@H](CC(C)C)C(=O)N[C@H](CC(C)C)C(=O)N[C@H](CCCCN)C(=O)N[C@H](CC(C)C)C(=O)N[C@H](CCCCN)C(N)=O` [mKLK] (H-[dW][dL][dW][dA][dL][dL][dK][dL][dL][dK][dL][dK]-NH2; N-terminus assumed) the “crystal violet absorbance at 570 nm, biofilm formation, Mean±SD” value (S. aureus strains; MRSA-2, 1/2MIC, control 2.354±0.04) was 0.444±0.008, the “crystal violet absorbance at 570 nm, biofilm formation, Mean±SD” value (S. aureus strains; MRSA-2, 1/4MIC, control 2.354±0.04) was 0.624±0.03 and the “crystal violet absorbance at 570 nm, biofilm formation, Mean±SD” value (S. aureus strains; MRSA-2, 1/8MIC, control 2.354±0.04) was 0.923±0.07. The “crystal violet absorbance at 570 nm, biofilm formation, Mean±SD” value (S. aureus strains; MRSA-3, 1/2MIC, control 1.541±0.02) was 1.405±0.01, the “crystal violet absorbance at 570 nm, biofilm formation, Mean±SD” value (S. aureus strains; MRSA-3, 1/4MIC, control 1.541±0.02) was 0.322±0.02 and the “crystal violet absorbance at 570 nm, biofilm formation, Mean±SD” value (S. aureus strains; MRSA-3, 1/8MIC, control 1.541±0.02) was 0.519±0.006. For the same molecule, the “crystal violet absorbance at 570 nm, biofilm formation, Mean±SD” value (S. aureus strains; MSSA-1, 1/2MIC, control 2.190±0.01) was 0.236±0.03, the “crystal violet absorbance at 570 nm, biofilm formation, Mean±SD” value (S. aureus strains; MSSA-1, 1/4MIC, control 2.190±0.01) was 0.407±0.007 and the “crystal violet absorbance at 570 nm, biofilm formation, Mean±SD” value (S. aureus strains; MSSA-1, 1/8MIC, control 2.190±0.01) was 0.622±0.02. The “crystal violet absorbance at 570 nm, biofilm formation, Mean±SD” value (S. aureus strains; MSSA-2, 1/2MIC, control 1.802±0.02) was 0.183±0.01, the “crystal violet absorbance at 570 nm, biofilm formation, Mean±SD” value (S. aureus strains; MSSA-2, 1/4MIC, control 1.802±0.02) was 0.225±0.01 and the “crystal violet absorbance at 570 nm, biofilm formation, Mean±SD” value (S. aureus strains; MSSA-2, 1/8MIC, control 1.802±0.02) was 0.558±0.05. The “inhibition of biofilm formation” value (S. aureus strains; 2) was 80-91%, the “inhibition of biofilm formation” value (S. aureus strains; 4) was 76-89% and the “inhibition of biofilm formation” value (S. aureus strains; 8) was 63-73%. For the same molecule, the “crystal violet absorbance at 570 nm, dispersal activity, Mean±SD” value (24-h S. aureus biofilms; ATCC25923, 1MIC, control 2.79±0.03) was 1.277±0.01, the “crystal violet absorbance at 570 nm, dispersal activity, Mean±SD” value (24-h S. aureus biofilms; ATCC25923, 2MIC, control 2.79±0.03) was 0.790±0.15 and the “crystal violet absorbance at 570 nm, dispersal activity, Mean±SD” value (24-h S. aureus biofilms; ATCC25923, 4MIC, control 2.79±0.03) was 0.35±0.01. The “crystal violet absorbance at 570 nm, dispersal activity, Mean±SD” value (24-h S. aureus biofilms; MRSA-1, 1MIC, control 1.903±0.003) was 1.271±0.02, the “crystal violet absorbance at 570 nm, dispersal activity, Mean±SD” value (24-h S. aureus biofilms; MRSA-1, 2MIC, control 1.903±0.003) was 0.926±0.07 and the “crystal violet absorbance at 570 nm, dispersal activity, Mean±SD” value (24-h S. aureus biofilms; MRSA-1, 4MIC, control 1.903±0.003) was 0.587±0.28. The “crystal violet absorbance at 570 nm, dispersal activity, Mean±SD” value (24-h S. aureus biofilms; MRSA-2, 1MIC, control 2.014±0.01) was 1.349±0.04, the “crystal violet absorbance at 570 nm, dispersal activity, Mean±SD” value (24-h S. aureus biofilms; MRSA-2, 2MIC, control 2.014±0.01) was 0.929±0.09 and the “crystal violet absorbance at 570 nm, dispersal activity, Mean±SD” value (24-h S. aureus biofilms; MRSA-2, 4MIC, control 2.014±0.01) was 0.579±0.08. For the same molecule, the “crystal violet absorbance at 570 nm, dispersal activity, Mean±SD” value (24-h S. aureus biofilms; MRSA-3, 1MIC, control 1.255±0.29) was 0.637±0.16, the “crystal violet absorbance at 570 nm, dispersal activity, Mean±SD” value (24-h S. aureus biofilms; MRSA-3, 2MIC, control 1.255±0.29) was 0.5±0.11 and the “crystal violet absorbance at 570 nm, dispersal activity, Mean±SD” value (24-h S. aureus biofilms; MRSA-3, 4MIC, control 1.255±0.29) was 0.296±0.009. The “crystal violet absorbance at 570 nm, dispersal activity, Mean±SD” value (24-h S. aureus biofilms; MSSA-1, 1MIC, control 1.787±0.1) was 1.063±0.09, the “crystal violet absorbance at 570 nm, dispersal activity, Mean±SD” value (24-h S. aureus biofilms; MSSA-1, 2MIC, control 1.787±0.1) was 0.675±0.02 and the “crystal violet absorbance at 570 nm, dispersal activity, Mean±SD” value (24-h S. aureus biofilms; MSSA-1, 4MIC, control 1.787±0.1) was 0.378±0.02. For the same molecule, the “crystal violet absorbance at 570 nm, dispersal activity, Mean±SD” value (24-h S. aureus biofilms; MSSA-2, 1MIC, control 2.116±0.006) was 0.992±0.01, the “crystal violet absorbance at 570 nm, dispersal activity, Mean±SD” value (24-h S. aureus biofilms; MSSA-2, 2MIC, control 2.116±0.006) was 0.637±0.20 and the “crystal violet absorbance at 570 nm, dispersal activity, Mean±SD” value (24-h S. aureus biofilms; MSSA-2, 4MIC, control 2.116±0.006) was 0.207±0.01. For the same molecule, the “time after which no regrowth was observed” value ([1]; ATCC 25923, 1 × MIC (4 μg/ml)) was 30 min, the “reduction in viable cell count” value ([1]; ATCC 25923, 1 × MIC, during 15 min) was ~1 log and the “time after which no regrowth was observed” value ([1]; ATCC 25923, 2 × MIC (8 μg/ml)) was 15 min. The “time after which no regrowth was observed” value ([1]; MRSA, 1 × MIC) was 240 min and the “reduction in viable cell count” value ([1]; MRSA, 1 × MIC (8 μg/ml), within 2 h) was 2 log.
